Assay results from publication PMC7339037 (Journal of medicinal chemistry, 2017).

Columns and labels:
full length human XPA = full length human XPA (Homo sapiens, UniProt P23025); assay: EMSA, binding of full length human XPA to a cisplatin-modified DNA
[1] = target: RPA (replication protein A) (Homo sapiens, UniProt P27694); assay: RPA-based EMSA; format: binding; details: at 10 μM
Solubility = format: physicochemical

Sequence of full length human XPA (P23025 whole entry): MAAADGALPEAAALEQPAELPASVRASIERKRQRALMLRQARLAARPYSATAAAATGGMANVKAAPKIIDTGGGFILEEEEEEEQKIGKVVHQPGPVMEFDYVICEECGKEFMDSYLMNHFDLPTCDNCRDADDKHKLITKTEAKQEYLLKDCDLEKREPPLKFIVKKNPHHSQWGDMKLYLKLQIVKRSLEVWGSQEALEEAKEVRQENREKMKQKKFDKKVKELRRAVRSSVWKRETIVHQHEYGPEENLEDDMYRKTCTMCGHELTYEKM
Sequence of RPA (replication protein A) (P27694 whole entry): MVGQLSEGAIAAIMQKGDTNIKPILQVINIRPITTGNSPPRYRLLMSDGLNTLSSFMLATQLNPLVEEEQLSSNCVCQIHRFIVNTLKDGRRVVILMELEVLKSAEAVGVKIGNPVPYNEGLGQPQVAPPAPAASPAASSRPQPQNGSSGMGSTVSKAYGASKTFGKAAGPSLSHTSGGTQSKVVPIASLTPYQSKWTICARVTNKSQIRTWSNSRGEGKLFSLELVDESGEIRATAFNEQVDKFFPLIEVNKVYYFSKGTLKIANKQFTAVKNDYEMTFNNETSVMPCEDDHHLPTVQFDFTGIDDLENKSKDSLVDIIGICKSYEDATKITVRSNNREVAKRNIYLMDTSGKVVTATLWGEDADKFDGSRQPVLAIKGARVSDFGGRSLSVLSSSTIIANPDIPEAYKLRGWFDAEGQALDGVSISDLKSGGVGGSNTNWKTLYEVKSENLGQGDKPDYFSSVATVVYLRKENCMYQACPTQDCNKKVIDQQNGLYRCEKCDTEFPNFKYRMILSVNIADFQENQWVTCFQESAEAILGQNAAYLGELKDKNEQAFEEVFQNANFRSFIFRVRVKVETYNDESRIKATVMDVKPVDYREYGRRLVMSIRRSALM

CCOC(=O)c1cccc(N2N=C(C)/C(=C/c3ccc(-c4ccc(Cl)c(C(=O)NCc5ccc(F)cc5)c4)o3)C2=O)c1 [Compound 33a, (Z)-Ethyl 3-(4-((5-(4-Chloro-3-((4-fluorobenzyl)carbamoyl)phenyl)furan-2-yl)-methylene)-3-methyl-5-oxo-4,5-dihydro-1H-pyrazol-1-yl)benzoate]
XPA inhibitory activity (in words) (full length human XPA): dramatically decreased or almost no XPA inhibitory activity

CC1=NN(c2ccc(Cl)c(C(=O)O)c2)C(=O)/C1=C\c1ccc(-c2ccc(Cl)c(C(=O)OCc3ccccc3)c2)o1 [Compound 22]
RPA inhibition [1]: no RPA inhibition
solubility (in words) (Solubility): poor solubility

CC1=NN(c2ccc(C(=O)O)cc2)C(=O)/C1=C\c1ccc(-c2ccc(Cl)c(C(=O)NCc3ccc(F)cc3)c2)o1 [Compound 34i, (Z)-4-(4-((5-(4-Chloro-3-((4-fluorobenzyl)carbamoyl)phenyl)-furan-2-yl)methylene)-3-methyl-5-oxo-4,5-dihydro-1H-pyrazol-1-yl)benzoic Acid]
RPA inhibition [1]: no RPA inhibition

CC1=NN(c2cccc(C(=O)O)c2)C(=O)/C1=C\c1ccc(-c2ccc(Cl)c(C(=O)NCc3ccc(F)cc3)c2)o1 [Compound 34a, (Z)-3-(4-((5-(4-Chloro-3-((4-fluorobenzyl)carbamoyl)phenyl)furan-2-yl)methylene)-3-methyl-5-oxo-4,5-dihydro-1H-pyrazol-1-yl)-benzoic Acid]
solubility (in words) (Solubility): dramatically increased solubility

CC1=NN(c2ccc(Cl)c(C(=O)O)c2)C(=O)/C1=C\c1ccc(-c2ccc(Cl)c(C(=O)OCc3ccccc3Cl)c2)o1 [Compound 24]
RPA inhibition [1]: no RPA inhibition
solubility (in words) (Solubility): poor solubility

CC1=NN(c2cccc(C(=O)O)c2)C(=O)/C1=C\c1ccc(-c2ccc(C(=O)NCC3CC3)cc2)o1 [Compound 39b, (Z)-3-(4-((5-(4-((Cyclopropylmethyl)carbamoyl)phenyl)furan-2-yl)methylene)-3-methyl-5-oxo-4,5-dihydro-1H-pyrazol-1-yl)benzoic Acid]
XPA inhibitory activity (in words) (full length human XPA): no XPA inhibitory activity

CC1=NN(c2cccc(C(=O)NCC3CC3)c2)C(=O)/C1=C\c1ccc(-c2ccc(Cl)c(C(=O)NCC3CC3)c2)o1 [Compound 34e, (Z)-2-Chloro-N-(cyclopropylmethyl)-5-(5-((1-(3-((cyclopropylmethyl)carbamoyl)phenyl)-3-methyl-5-oxo-1H-pyrazol-4(5H)-ylidene)methyl)furan-2-yl)-benzamide]
XPA inhibitory activity (in words) (full length human XPA): dramatically decreased or almost no XPA inhibitory activity

CC1=NN(c2cccc(C(=O)O)c2)C(=O)/C1=C\c1ccc(-c2ccc(C(=O)NCc3ccc(F)cc3)cc2)o1 [Compound 39a, (Z)-3-(4-((5-(4-((4-Fluorobenzyl)carbamoyl)phenyl)furan-2-yl)-methylene)-3-methyl-5-oxo-4,5-dihydro-1H-pyrazol-1-yl)benzoic Acid]
XPA inhibitory activity (in words) (full length human XPA): no XPA inhibitory activity

CC1=NN(c2ccc(C(=O)O)cc2)C(=O)/C1=C\c1ccc(-c2ccc(Cl)c(C(=O)NCC3CC3)c2)o1 [Compound 34k, (Z)-4-(4-((5-(4-Chloro-3-((cyclopropylmethyl)carbamoyl)phenyl)-furan-2-yl)methylene)-3-methyl-5-oxo-4,5-dihydro-1H-pyrazol-1-yl)benzoic Acid]
RPA inhibition [1]: no RPA inhibition
